From ChEMBL document CHEMBL4813957, “Antitubercular properties of thiazolidin-4-ones - A review” (Eur J Med Chem, 2021)
Converted amounts (≈) assume the structure as drawn.

Experiments:
[1] = system: Mycobacterium tuberculosis; experiment: Antimycobacterial activity against Mycobacterium tuberculosis H37Rv assessed as bacterial inhibition at 25 ug/ml by microplate alamar blue assay relative to control; type: functional
[2] = system: Mycobacterium tuberculosis; experiment: Antimycobacterial activity against Mycobacterium tuberculosis H37Ra; type: functional
[3] = system: Mycobacterium tuberculosis; experiment: Antimycobacterial activity against Mycobacterium tuberculosis H37Rv assessed as growth inhibition at 6.25 ug/ml by microplate alamar blue assay relative to control; type: functional; settings: read-out: GI
[4] = system: Mycobacterium tuberculosis; experiment: Antimycobacterial activity against Mycobacterium tuberculosis H37Rv incubated for 7 days by microplate alamar blue assay; type: functional; settings: 168 h, time 7 day
[5] = system: Mycobacterium tuberculosis; experiment: Antimycobacterial activity against Mycobacterium tuberculosis H37Ra ATCC 25177 incubated for 7 days by microplate alamar blue assay; type: functional; settings: H37Ra ATCC 25177, 168 h, time 7 day
[6] = system: Mycobacterium tuberculosis; experiment: Bactericidal activity against Mycobacterium tuberculosis H37Ra ATCC 25177 assessed as ratio of MBC to MIC; type: functional
[7] = Selectivity index, ratio of IC50 for African green monkey Vero cells to MIC for antitubercular activity against Mycobacterium tuberculosis H37Ra ATCC 25177; type: toxicity
[8] = system: Mycobacterium tuberculosis; experiment: Antimycobacterial activity against Mycobacterium tuberculosis H37Rv assessed as growth inhibition at 50 ug/ml by Lowenstein-Jensen method relative to control; type: functional; settings: read-out: GI
[9] = system: Mycobacterium tuberculosis; experiment: Antimycobacterial activity against Mycobacterium tuberculosis H37Ra 7131 incubated for 21 days by broth dilution method; type: functional; settings: H37Ra 7131, 504 h, time 21 day
[10] = system: Mycobacterium tuberculosis; experiment: Antimycobacterial activity against Mycobacterium tuberculosis H37Rv ATCC27294 incubated for 7 days by microplate alamar blue assay; type: functional; settings: H37Rv ATCC 27294, 168 h, time 7 day
[11] = system: Mycobacterium tuberculosis; experiment: Antimycobacterial activity against Mycobacterium tuberculosis H37Rv; type: functional
[12] = system: Mycobacterium tuberculosis; experiment: Antimycobacterial activity against Mycobacterium tuberculosis H37Rv by microplate alamar blue assay; type: functional
[13] = system: Mycobacterium tuberculosis; experiment: Antimycobacterial activity against Mycobacterium tuberculosis H37Rv incubated for 5 days by microplate alamar blue assay; type: functional; settings: 120 h, time 5 day
[14] = system: Mycobacterium tuberculosis; experiment: Antimycobacterial activity against Mycobacterium tuberculosis H37Ra ATCC 25177 measured on 8th to 12th day by XTT reduction menadione assay; type: functional; settings: time 8-12 day
[15] = system: Mycobacterium tuberculosis; experiment: Antimycobacterial activity against Mycobacterium tuberculosis H37Rv ATCC 27294 incubated for 5 days by microplate alamar blue assay; type: functional; settings: H37Rv ATCC 27294, 120 h, time 5 day
[16] = system: Mycobacterium tuberculosis; experiment: Antimycobacterial activity against Mycobacterium tuberculosis H37Rv measured after 14 days by test tube dilution technique; type: functional; settings: 336 h, time 14 day
[17] = system: Mycobacterium tuberculosis; experiment: Antimycobacterial activity against Mycobacterium tuberculosis H37Rv measured after 21 days by test tube dilution technique; type: functional; settings: 504 h, time 21 day
[18] = system: Mycolicibacterium smegmatis; experiment: Antimycobacterial activity against Mycobacterium smegmatis ATCC 35797 incubated for 48 hrs by agar dilution method; type: functional

With `CCCCCCCCN1C(=O)CSC12CCCCC2` as the compound, how does the inhibition at 25 µg/mL [1] read?
The inhibition at 25 µg/mL was 96%.

Which MIC [2] does the source give for `Cc1ccc(/N=N/c2ccc(/C=C3\SC(=S)NC3=O)c(O)c2)cc1` here?
Its MIC is 95 µg/mL (≈ 267 µM).

Which inhibition of growth at 6.25 µg/mL [3] does the source give for `N#Cc1ccc(C2SCC(=O)N2NC(=O)C(O)(c2ccccc2)c2ccccc2)cc1` (stereo not drawn) here?
Its inhibition of growth at 6.25 µg/mL is 98%.

With `O=C1CSC(c2ccc(O)cc2)N1c1nnc(S)s1` (stereo not drawn) as the compound, how does the MIC [4] read?
The MIC was 12.5 µg/mL (≈ 40.1 µM).

For `NC(=S)N/N=C/c1ccc(OC(=O)CC2SC(=O)NC2=O)cc1` (stereo not drawn), which MIC [5] is on record?
The MIC was 0.031 µg/mL (≈ 0.088 µM).

What about the Ratio [6] of the same compound?
Its Ratio is 2.

What about the selectivity ratio [7] of the same compound?
The selectivity ratio was > 10.

With `O=C1CSC(c2ccccc2)N1C(=O)NCCCN1c2ccccc2Sc2ccccc21` (stereo not drawn) as the compound, how does the inhibition of growth at 50 µg/mL [8] read?
Its inhibition of growth at 50 µg/mL is 75%.

Which MIC [9] does the source give for `Cc1cccc(/N=C2\SC(=O)C(=O)N2NC(=O)c2ccncc2)c1` here?
The MIC was 19.5 µg/mL (≈ 57.3 µM).

With `CC/N=C1\SC(=O)C(=O)N1NC(=O)c1ccncc1` as the compound, how does the MIC [9] read?
The MIC was 19.5 µg/mL (≈ 70.1 µM).

Which MIC [2] does the source give for `CCOC(=O)C(C(C)C)N1C(=O)C(C)SC1c1cccc(OC)c1O` (stereo not drawn) here?
Its MIC is 25 µg/mL (≈ 68 µM).

Which MIC [10] does the source give for `COc1cccc(C2SCC(=O)N2NC(=O)c2cc(O)c(O)c(O)c2)c1O` (stereo not drawn) here?
The MIC was 0.79 µg/mL (≈ 2.01 µM).

For `COc1cc(-c2cc(-c3ccc(Cl)cc3)nc(NC(=O)NN3C(=O)CSC3c3ccccc3O)n2)cc(OC)c1OC` (stereo not drawn), which MIC [11] is on record?
The MIC was 100 µg/mL (≈ 164 µM).

Which results are given for `O=C(O)c1cn(C2CC2)c2cc(N3CCNCC3)c(F)cc2c1=O` [CIPROFLOXACIN]?
MIC [12]: 3.12 µg/mL (≈ 9.42 µM); MIC [13]: 3.12 µg/mL (≈ 9.42 µM); MIC [4]: 3.12 µg/mL (≈ 9.42 µM)

Which MIC [2] does the source give for `O=C1NC(=S)S/C1=C\c1ccc(/N=N/c2ccccc2)cc1O` here?
The MIC was 95 µg/mL (≈ 278 µM).

Which IC90 [14] does the source give for `Cc1cc(NS(=O)(=O)c2ccc(N3C(=O)CSC3c3c(F)cccc3F)cc2)no1` (stereo not drawn) here?
Its IC90 is 0.43 µg/mL (≈ 0.952 µM).

For `O=C1NC(=S)S/C1=C\c1c(O)ccc2ccccc12`, which MIC [2] is on record?
Its MIC is 95 µg/mL (≈ 331 µM).

With `CCCCCCCCCCCCN1C(=O)C(CC(=O)O)SC12CCC(C(C)(C)C)CC2` (stereo not drawn) as the compound, how does the inhibition at 25 µg/mL [1] read?
Its inhibition at 25 µg/mL is 96%.

For `O=C(NN1C(=O)CSC1c1ccccc1O)c1cc(O)c(O)c(O)c1` (stereo not drawn), which MIC [10] is on record?
The MIC was 0.79 µg/mL (≈ 2.18 µM).

For `CN(C)c1ccc(C2SCC(=O)N2NC(=O)c2ccncc2)cc1` (stereo not drawn), which MIC [15] is on record?
Its MIC is 5 µg/mL (≈ 14.6 µM).

For `O=C1/C(=C/c2ccc([N+](=O)[O-])cc2)SC(c2ccc([N+](=O)[O-])cc2)N1NCCNc1ncc([N+](=O)[O-])s1` (stereo not drawn), which MIC [11] is on record?
Its MIC is 25 µg/mL (≈ 46 µM).

Which IC90 [14] does the source give for `Cc1cc(NS(=O)(=O)c2ccc(N3C(=O)CSC3c3ccc(C(F)(F)F)cc3)cc2)no1` (stereo not drawn) here?
Its IC90 is 0.43 µg/mL (≈ 0.889 µM).

For `O=C(NCCCN1c2ccccc2Sc2ccccc21)N1C(=O)/C(=C/c2cccc([N+](=O)[O-])c2)SC1c1cccc([N+](=O)[O-])c1` (stereo not drawn), which inhibition of growth at 50 µg/mL [8] is on record?
The inhibition of growth at 50 µg/mL was 83%.

With `O=C(NN1C(=O)CSC1c1ccco1)c1ccncc1` (stereo not drawn) as the compound, how does the MIC [15] read?
Its MIC is 1.25 µg/mL (≈ 4.32 µM).

With `O=C(NN1C(=O)CSC1c1ccc([N+](=O)[O-])cc1)c1ccncc1` (stereo not drawn) as the compound, how does the MIC [15] read?
The MIC was 3.12 µg/mL (≈ 9.06 µM).

Which MIC [2] does the source give for `Cc1ccccc1/N=N/c1ccc(/C=C2\SC(=S)NC2=O)c(O)c1` here?
Its MIC is 95 µg/mL (≈ 267 µM).

For `C/C(=N\N1C(=O)CSC1c1ccc(O)cc1)c1oc2ccc(Cl)cc2c1C` (stereo not drawn), which MIC [11] is on record?
Its MIC is 25 µg/mL (≈ 62.4 µM).

With `NC(=S)N/N=C/c1ccc(OC(=O)/C=C2\SC(=O)NC2=O)cc1` as the compound, how does the MIC [5] read?
Its MIC is 0.031 µg/mL (≈ 0.0885 µM).

What about the Ratio [6] of the same compound?
Its Ratio is 2.

And the selectivity ratio [7]?
Its selectivity ratio is > 10.

With `CCCCN1C(=O)CS/C1=N/NC(=O)COc1cnccn1` as the compound, how does the MIC [16] read?
Its MIC is > 100 µg/mL.

And the MIC [17]?
Its MIC is > 100 µg/mL.

For `COc1cc(-c2cc(-c3ccc(Cl)cc3)nc(NC(=O)NN3C(=O)CSC3c3ccccc3[N+](=O)[O-])n2)cc(OC)c1OC` (stereo not drawn), which MIC [11] is on record?
Its MIC is 100 µg/mL (≈ 157 µM).

With `O=C1NC(=S)S/C1=C\c1ccccc1O` as the compound, how does the MIC [2] read?
The MIC was 95 µg/mL (≈ 400 µM).

For `O=C1CSC(c2ccc(Cl)cc2)N1NC(=O)C(O)(c1ccccc1)c1ccccc1` (stereo not drawn), which inhibition of growth at 6.25 µg/mL [3] is on record?
Its inhibition of growth at 6.25 µg/mL is 99%.

For `CCCCCCCCCCCCN1C(=O)C(CC(=O)O)SC12CCN(C(=O)C(N)CCCCN)CC2` (stereo not drawn), which inhibition at 25 µg/mL [1] is on record?
Its inhibition at 25 µg/mL is 96%.

For `O=C1CSC(c2ccc(OCc3ccccc3)cc2)N1NC(=O)C(O)(c1ccccc1)c1ccccc1` (stereo not drawn), which inhibition of growth at 6.25 µg/mL [3] is on record?
The inhibition of growth at 6.25 µg/mL was 98%.

For `CCCCCCCCCCCCN1C(=O)C(CC(=O)O)SC12CCCCC2` (stereo not drawn), which inhibition at 25 µg/mL [1] is on record?
The inhibition at 25 µg/mL was 97%.

For `C=CC/N=C1\SC(=O)C(=O)N1NC(=O)c1ccncc1`, which MIC [9] is on record?
The MIC was 19.5 µg/mL (≈ 67.2 µM).

For `Cc1ccc(/C=C2\SC(=N)N(NC(=O)c3ccncc3)C2=O)cc1`, which MIC [9] is on record?
The MIC was 13 µg/mL (≈ 38.4 µM).

For `COc1ccc(/N=N/c2ccc(/C=C3\SC(=S)NC3=O)c(O)c2)cc1`, which MIC [2] is on record?
Its MIC is 95 µg/mL (≈ 256 µM).

For `CC1SC(c2ccc(C#N)cc2)N(NC(=O)C(O)(c2ccccc2)c2ccccc2)C1=O` (stereo not drawn), which inhibition of growth at 6.25 µg/mL [3] is on record?
The inhibition of growth at 6.25 µg/mL was 99%.

For `COc1ccc(C2SCC(=O)N2NC(=O)Nc2nc(-c3ccc(Cl)cc3)cc(-c3cc(OC)c(OC)c(OC)c3)n2)cc1` (stereo not drawn), which MIC [11] is on record?
Its MIC is 100 µg/mL (≈ 161 µM).

With `CCC1SCC(=O)N1NC(=O)c1ccncc1` (stereo not drawn) as the compound, how does the MIC [18] read?
The MIC was > 100 µg/mL.

With `O=C(NN1C(=O)CSC1c1ccccc1O)c1ccncc1` (stereo not drawn) as the compound, how does the MIC [15] read?
Its MIC is 0.62 µg/mL (≈ 1.97 µM).

With `CCCCCCCCCCCCN1C(=O)C(CC(=O)O)SC12CCN(C(=O)OC(C)(C)C)CC2` (stereo not drawn) as the compound, how does the inhibition at 25 µg/mL [1] read?
Its inhibition at 25 µg/mL is 96%.
